Reference: patent US5530126A, “Process for the preparation of substituted 6-(pyrazol-3yl)-1,4-benzoxazin-3-ones” (Monsanto Company, priority 1994, dated 1996)

Legend:
Format in all cases: in vivo
[1] = test system: Indian Mustard; assay: Pre-emergence herbicide test; conditions: Brassica juncea, read-out: % plant inhibition (Inmu); for inhibition at 11210 g/ha: 11.21 kg/ha; for inhibition at 1120 g/ha: 1.12 kg/ha
Protocol: (§1) The tests for pre-emergence herbicide activity are conducted as follows:
(§2) Topsoil is placed in an aluminum pan and compacted to a depth of 0.95 to 1.27 cm from the top of the pan. On the top of the soil is placed a predetermined number of seeds of each of several monocotyledonous and dicotyledonous annual plant species and/or vegetative propagules of various perennial plant species. A known amount of the active ingredient dissolved or suspended in an organic solvent, e.g., acetone, or water as carrier is then applied directly to the seed bed, which is then covered with a layer of untreated topsoil to level fill the pan. After treatment, the pans are moved to a greenhouse bench where they are watered from below as needed to give adequate moisture for germination and growth.
(§3) Approximately 10-14 days (usually 11 days) after seeding and treating, the pans are observed and the results (% inhibition) are recorded.
(§4) Tables 7 and 7A below summarize the results of the pre-emergence herbicidal activity tests of compounds of this invention in weeds. The herbicidal rating shown in these tables is the percent inhibition of each plant species. The plant species usually regarded as weeds which are utilized in one set of tests, the data for which are shown in the tables, are identified by letter headings above the columns in accordance with the following legend: […]

[2] = test system: Yellow nutsedge; assay: Pre-emergence herbicide test; conditions: Cyperus, read-out: % plant inhibition (Yens); for inhibition at 11210 g/ha: 11.21 kg/ha; for inhibition at 1120 g/ha: 1.12 kg/ha
Protocol: as §1, §2, §3, §4

[3] = test system: Velvetleaf; assay: Pre-emergence herbicide test; conditions: Abutilon theophrasti, read-out: % plant inhibition (Vele); for inhibition at 11210 g/ha: 11.21 kg/ha; for inhibition at 1120 g/ha: 1.12 kg/ha
Protocol: as §1, §2, §3, §4

[4] = test system: Wild buckwheat; assay: Pre-emergence herbicide test; conditions: Fallopia convolvulus, read-out: % plant inhibition (Wibw); for inhibition at 11210 g/ha: 11.21 kg/ha; for inhibition at 1120 g/ha: 1.12 kg/ha
Protocol: as §1, §2, §3, §4

[5] = test system: Annual bluegrass; assay: Pre-emergence herbicide test; conditions: read-out: % plant inhibition (Anbg); for inhibition at 11210 g/ha: 11.21 kg/ha; for inhibition at 1120 g/ha: 1.12 kg/ha
Protocol: as §1, §2, §3, §4

[6] = test system: Barnyardgrass; assay: Pre-emergence herbicide test; conditions: Echinochloa crus-galli, read-out: % plant inhibition (Bygr); for inhibition at 11210 g/ha: 11.21 kg/ha; for inhibition at 1120 g/ha: 1.12 kg/ha
Protocol: as §1, §2, §3, §4

[7] = test system: Cocklebur; assay: Pre-emergence herbicide test; conditions: Xanthium strumarium, read-out: % plant inhibition (Cobu); for inhibition at 11210 g/ha: 11.21 kg/ha; for inhibition at 1120 g/ha: 1.12 kg/ha
Protocol: as §1, §2, §3, §4

[8] = test system: Seedling johnsongrass; assay: Pre-emergence herbicide test; conditions: Sorghum halepense, read-out: % plant inhibition (Sejg); for inhibition at 11210 g/ha: 11.21 kg/ha; for inhibition at 1120 g/ha: 1.12 kg/ha
Protocol: as §1, §2, §3, §4

[9] = test system: Morningglory; assay: Pre-emergence herbicide test; conditions: Ipomoea, read-out: % plant inhibition (Mogl); for inhibition at 11210 g/ha: 11.21 kg/ha; for inhibition at 1120 g/ha: 1.12 kg/ha
Protocol: as §1, §2, §3, §4

[10] = test system: Downy Brome; assay: Pre-emergence herbicide test; conditions: Bromus tectorum, read-out: % plant inhibition (Dobr); for inhibition at 11210 g/ha: 11.21 kg/ha; for inhibition at 1120 g/ha: 1.12 kg/ha
Protocol: as §1, §2, §3, §4

[11] = test system: Indian Mustard; assay: Post-emergence herbicide test; conditions: Brassica juncea, read-out: % plant inhibition (Inmu); for inhibition at 11210 g/ha: 11.21 kg/ha; for inhibition at 1120 g/ha: 1.12 kg/ha
Description: (§5) Topsoil is placed in aluminum pans having holes in the bottom and compacted to a depth of 0.95 to 1.27 cm from the top of the pan. A predetermined number of seeds of each of several dicotyledonous and monocotyledonous annual plant species and/or vegetative propagules for the perennial plant species are placed on the soil and pressed into the soil surface. The seeds and/or vegetative propagules are covered with soil and leveled. The pans are then placed on a bench in the greenhouse and watered from below as needed. After the plants reach the desired age (two to three weeks), each pan, is removed individually to a spraying chamber and sprayed by means of an atomizer, operating at a spray pressure of 170.3 kPa (10 psig) at the application rates noted. In the spray solution is an amount of an emulsifying agent mixture to give a spray solution or suspension which contains about 0.4% by volume of the emulsifier. The spray solution or suspension contains a sufficient amount of the candidate chemical in order to give application rates of the active ingredient corresponding to those shown in Tables 8 and 8A, while applying a total amount of solution or suspension equivalent to 1870 L/Ha (200 gallons/acre). The pans were returned to the greenhouse and watered as before and the injury to the plants as compared to the control is observed at approximately 10-14 days (usually 11 days) and in some instances observed again at 24-28 days (usually 25 days) after spraying. The post-emergent herbicidal activity shown in these tables is the percent inhibition of each plant species.

[12] = test system: Yellow nutsedge; assay: Post-emergence herbicide test; conditions: Cyperus, read-out: % plant inhibition (Yens); for inhibition at 11210 g/ha: 11.21 kg/ha; for inhibition at 1120 g/ha: 1.12 kg/ha
Description: as §5

[13] = test system: Velvetleaf; assay: Post-emergence herbicide test; conditions: Abutilon theophrasti, read-out: % plant inhibition (Vele); for inhibition at 11210 g/ha: 11.21 kg/ha; for inhibition at 1120 g/ha: 1.12 kg/ha
Description: as §5

[14] = test system: Wild buckwheat; assay: Post-emergence herbicide test; conditions: Fallopia convolvulus, read-out: % plant inhibition (Wibw); for inhibition at 11210 g/ha: 11.21 kg/ha; for inhibition at 1120 g/ha: 1.12 kg/ha
Description: as §5

[15] = test system: Annual bluegrass; assay: Post-emergence herbicide test; conditions: read-out: % plant inhibition (Anbg); for inhibition at 11210 g/ha: 11.21 kg/ha; for inhibition at 1120 g/ha: 1.12 kg/ha
Description: as §5

[16] = test system: Barnyardgrass; assay: Post-emergence herbicide test; conditions: Echinochloa crus-galli, read-out: % plant inhibition (Bygr); for inhibition at 11210 g/ha: 11.21 kg/ha; for inhibition at 1120 g/ha: 1.12 kg/ha
Description: as §5

[17] = test system: Cocklebur; assay: Post-emergence herbicide test; conditions: Xanthium strumarium, read-out: % plant inhibition (Cobu); for inhibition at 11210 g/ha: 11.21 kg/ha; for inhibition at 1120 g/ha: 1.12 kg/ha
Description: as §5

[18] = test system: Seedling johnsongrass; assay: Post-emergence herbicide test; conditions: Sorghum halepense, read-out: % plant inhibition (Sejg); for inhibition at 11210 g/ha: 11.21 kg/ha; for inhibition at 1120 g/ha: 1.12 kg/ha
Description: as §5

[19] = test system: Morningglory; assay: Post-emergence herbicide test; conditions: Ipomoea, read-out: % plant inhibition (Mogl); for inhibition at 11210 g/ha: 11.21 kg/ha; for inhibition at 1120 g/ha: 1.12 kg/ha
Description: as §5

[20] = test system: Downy Brome; assay: Post-emergence herbicide test; conditions: Bromus tectorum, read-out: % plant inhibition (Dobr); for inhibition at 11210 g/ha: 11.21 kg/ha; for inhibition at 1120 g/ha: 1.12 kg/ha
Description: as §5

## Cn1nc(C(F)F)c(Cl)c1-c1cc(F)ccc1F [Compound 62]
[1]
  inhibition at 11210 g/ha: 20%
[2]
  inhibition at 11210 g/ha: 0%
[3]
  inhibition at 11210 g/ha: 60%
[4]
  inhibition at 11210 g/ha: 20%
[5]
  inhibition at 11210 g/ha: 0%
[6]
  inhibition at 11210 g/ha: 20%
[7]
  inhibition at 11210 g/ha: 0%
[8]
  inhibition at 11210 g/ha: 30%
[9]
  inhibition at 11210 g/ha: 30%
[10]
  inhibition at 11210 g/ha: 0%
[11]
  inhibition at 11210 g/ha: 0%
[12]
  inhibition at 11210 g/ha: 0%
[13]
  inhibition at 11210 g/ha: 10%
[14]
  inhibition at 11210 g/ha: 0%
[15]
  inhibition at 11210 g/ha: 0%
[16]
  inhibition at 11210 g/ha: 0%
[17]
  inhibition at 11210 g/ha: 0%
[18]
  inhibition at 11210 g/ha: 0%
[19]
  inhibition at 11210 g/ha: 0%
[20]
  inhibition at 11210 g/ha: 0%

## CCOC(=O)CSCc1cc(-c2nn(C)c(C(F)(F)F)c2Cl)c(F)cc1Cl [Compound 123]
[1]
  inhibition at 1120 g/ha: 80%
[2]
  inhibition at 1120 g/ha: 30%
[3]
  inhibition at 1120 g/ha: 100%
[4]
  inhibition at 1120 g/ha: 90%
[5]
  inhibition at 1120 g/ha: 0%
[6]
  inhibition at 1120 g/ha: 30%
[7]
  inhibition at 1120 g/ha: 50%
[8]
  inhibition at 1120 g/ha: 40%
[9]
  inhibition at 1120 g/ha: 100%
[10]
  inhibition at 1120 g/ha: 70%
[11]
  inhibition at 1120 g/ha: 30%
[12]
  inhibition at 1120 g/ha: 20%
[13]
  inhibition at 1120 g/ha: 100%
[14]
  inhibition at 1120 g/ha: 90%
[15]
  inhibition at 1120 g/ha: 0%
[16]
  inhibition at 1120 g/ha: 50%
[17]
  inhibition at 1120 g/ha: 70%
[18]
  inhibition at 1120 g/ha: 50%
[19]
  inhibition at 1120 g/ha: 100%
[20]
  inhibition at 1120 g/ha: 60%

## COc1cc(F)c(-c2c(Cl)c(C(F)(F)F)nn2C)cc1[N+](=O)[O-] [Compound 78]
[1]
  inhibition at 11210 g/ha: 0%
[2]
  inhibition at 11210 g/ha: 0%
[3]
  inhibition at 11210 g/ha: 0%
[4]
  inhibition at 11210 g/ha: 0%
[5]
  inhibition at 11210 g/ha: 0%
[6]
  inhibition at 11210 g/ha: 0%
[7]
  inhibition at 11210 g/ha: 0%
[8]
  inhibition at 11210 g/ha: 0%
[9]
  inhibition at 11210 g/ha: 0%
[10]
  inhibition at 11210 g/ha: 0%
[11]
  inhibition at 11210 g/ha: 40%
[12]
  inhibition at 11210 g/ha: 0%
[13]
  inhibition at 11210 g/ha: 40%
[14]
  inhibition at 11210 g/ha: 30%
[15]
  inhibition at 11210 g/ha: 0%
[16]
  inhibition at 11210 g/ha: 0%
[17]
  inhibition at 11210 g/ha: 10%
[18]
  inhibition at 11210 g/ha: 10%
[19]
  inhibition at 11210 g/ha: 10%
[20]
  inhibition at 11210 g/ha: 10%

## Cn1nc(-c2cc(C=NOCC(=O)O)c(Cl)cc2F)c(Cl)c1C(F)(F)F [Compound 130, ((((2-chloro-5-(4-chloro-1-methyl-5-(trifluoromethyl)-1H-pyrazol-3-yl)-4-fluorophenyl)methylene)amino)oxy)acetic acid]
[1]
  inhibition at 1120 g/ha: 100%
[2]
  inhibition at 1120 g/ha: 20%
[3]
  inhibition at 1120 g/ha: 100%
[4]
  inhibition at 1120 g/ha: 90%
[5]
  inhibition at 1120 g/ha: 0%
[6]
  inhibition at 1120 g/ha: 30%
[7]
  inhibition at 1120 g/ha: 90%
[8]
  inhibition at 1120 g/ha: 70%
[9]
  inhibition at 1120 g/ha: 100%
[10]
  inhibition at 1120 g/ha: 30%
[11]
  inhibition at 1120 g/ha: 40%
[12]
  inhibition at 1120 g/ha: 20%
[13]
  inhibition at 1120 g/ha: 100%
[14]
  inhibition at 1120 g/ha: 100%
[15]
  inhibition at 1120 g/ha: 20%
[16]
  inhibition at 1120 g/ha: 40%
[17]
  inhibition at 1120 g/ha: 100%
[18]
  inhibition at 1120 g/ha: 70%
[19]
  inhibition at 1120 g/ha: 100%
[20]
  inhibition at 1120 g/ha: 30%
